Reference: PubChem BioAssay AID2060884 (Molecular Pharmacology Branch, DTP, NCI, 2025)

System: NCI-H929 complex spheroids, viability % test/control
Assay: Anticancer human tumor NCI-H929 cell line growth inhibition [RAS];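 also: compound exposure lasted seven days before viability was read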
Settings: for viability, T/C: stronger effect = lower value
Text: RAS pathway inhibitors in Combinations in Complex Spheroids
A high-throughput screen of multi-cell type tumor spheroids was designed to identify active combinations of RAS pathway inhibitors and targeted small molecules. Complex spheroids include a stromal component modeled by human endothelial cells (HUVEC) and fibroblasts modeled by human mesenchymal stem cells (MSCs). The concentration ranges selected for each drug and investigational agent were based upon clinically achievable concentrations if the clinical Cmax of the agent was known.
Compounds. The drugs and investigational agents: abemaciclib (NSC768073), cobimetinib (NSC768068), divarasib (GDC6063, NSC841802), docetaxel (NSC628503), GDC-1971 (RLY-1971, NSC841576), gemcitabine (NSC613327), inavolisib (NSC800729), ipatasertib (NSC767898), KB-0742 (NSC834161), MRTX-1133 (NSC836407), osimertinib (NSC779217), RMC-4630 (NSC839698), RMC-6236 (NSC851965), RMC-6291 (NSC852671), Ro-3306 (NSC812927), sapanisertib (NSC764658), SN-38 (NSC673596), staurosporine (NSC755774), SY5609 (NSC837396), and tovorafenib (DAY101, NSC766906), were obtained from the National Cancer Institute (NCI) Developmental Therapeutics Program Chemical Repository. The FDA-approved anticancer drug set is available from the NCI Developmental Therapeutics Program. […] The stock solutions were prepared in dimethyl sulfoxide (DMSO, Sigma-Aldrich, St. Louis, MO, cat. D2650) at 800-fold the tested concentration and stored at -70 degrees C prior to their use. All drugs and investigational agents were tested over a range starting from a high concentration at or near the clinical Cmax and decreasing in half-log increments. If the clinical Cmax for an agent had not been determined, the highest concentration tested was 10 microM.
Cell Culture. All cells were maintained in an incubator at 37 degrees C and 5% CO2 with 95% humidity. The PDC lines were cultured according to standard operating procedures established by the NCI PDMR. All PDCs were thawed and cultured in Matrigel-coated flasks prepared with a working solution of 1X Ham's F-12 nutrient mix, without supplementation (Invitrogen, Waltham, MA, cat. 11765054), 100 U/mL penicillin-streptomycin (Invitrogen, cat. 15140122), and 2.5% Matrigel (Corning Inc., Corning, NY, cat. 354248) for the first three passages. The 362531-283-R-J2-PDC and 782815-120-R-J1-PDC lines were cultured in 6C/Colon 1B media, which includes advanced DMEM/F-12 (Thermo Fisher Scientific, cat. 12634028), 10 mM HEPES (Thermo Fisher Scientific, cat. 15630080), 1X GlutaMAX supplement (Thermo Fisher Scientific, cat. 35050061), 0.1 mg/mL primocin (InvivoGen, San Diego, CA, cat. ant-pm-2), 10% defined fetal bovine serum, heat inactivated (HyClone Laboratories Inc., Logan, UT, cat. SH30070.03HI), 50% L-WRN conditioned media (ATCC, cat. CRL-3276), 1.25 mM N-Acetyl-L-cysteine (Sigma-Aldrich, cat. A9165), 10 mM nicotinamide (Sigma-Aldrich, cat. N0636), 1X B-27 supplement (Thermo Fisher Scientific, cat. 17504044), 1X N-2 supplement (Thermo Fisher Scientific, cat. 17502048), 50 ng/mL human EGF (Thermo Fisher Scientific, cat. PHG0311), and 10 microM Y-27632 dihydrochloride (Tocris Bioscience, cat. 1254). The K12877-001-R-J1-PDC line was cultured in 6I media, which includes all 6C/Colon 1B media plus 10 ng/mL human FGF-10 (PeproTech, cat. 100-26), 1 ng/mL human FGF-2 (PeproTech, cat. 100-18B), 1 µM prostaglandin E2 (Tocris Bioscience, cat. 2296), […] hydrocortisone (Sigma-Aldrich, cat. H4001), and […] bovine insulin (Sigma-Aldrich, cat. I6634). The K86415-001-R-J1-PDC line was cultured in 6D media, which includes all 6C/Colon 1B media components minus the L-WRN conditioned media. The 485176-168-R4-J1-PDC was cultured in PANC media, which includes all 6C/Colon 1B media plus 100 ng/mL human FGF-10 (PeproTech, cat. 100-26), 500 nM SB-431542 (Selleckchem, cat. S1067), and 10 nM gastrin (Tocris Bioscience, cat. 3006). […]

## C=CC(=O)N1CCN(c2nc(OCC3CCCN3C)nc3c(F)c(-c4nc(N)cc(C)c4C(F)(F)F)c(Cl)cc23)C(C)C1 (centres undefined) + CCn1c(-c2cccnc2C(C)OC)c2c3cc(ccc31)N1CCOC(CC(NC(=O)C(C(C)C)N(C)C(=O)C3(F)CCN(C(=O)C#CC(C)(C)N(C)C)CC3)C(=O)N3CCCC(N3)C(=O)OCC(C)(C)C2)C1
Curve of first compound, second compound 0.000949 µM
  IC50: > 1000 nM
Curve of first compound, second compound 0.003 µM
  IC50: > 1000 nM
Curve of first compound, second compound 0.00949 µM
  IC50: > 1000 nM
Curve of first compound, second compound 0.03 µM
  IC50: > 1000 nM
Curve of first compound, second compound 0.0949 µM
  IC50: > 1000 nM
Curve of first compound, second compound 0.3 µM
  IC50: > 1000 nM
Second compound 0.000949 µM, first compound 0.00316 µM
  viability, T/C: 104%
Second compound 0.000949 µM, first compound 0.01 µM
  viability, T/C: 103%
Second compound 0.000949 µM, first compound 0.0316 µM
  viability, T/C: 103%
Second compound 0.000949 µM, first compound 0.1 µM
  viability, T/C: 104%
Second compound 0.000949 µM, first compound 0.316 µM
  viability, T/C: 102%
Second compound 0.000949 µM, first compound 1 µM
  viability, T/C: 105%
Second compound 0.003 µM, first compound 0.00316 µM
  viability, T/C: 104%
Second compound 0.003 µM, first compound 0.01 µM
  viability, T/C: 105%
Second compound 0.003 µM, first compound 0.0316 µM
  viability, T/C: 101%
Second compound 0.003 µM, first compound 0.1 µM
  viability, T/C: 102%
Second compound 0.003 µM, first compound 0.316 µM
  viability, T/C: 107%
Second compound 0.003 µM, first compound 1 µM
  viability, T/C: 104%
Second compound 0.00949 µM, first compound 0.00316 µM
  viability, T/C: 104%
Second compound 0.00949 µM, first compound 0.01 µM
  viability, T/C: 101%
Second compound 0.00949 µM, first compound 0.0316 µM
  viability, T/C: 106%
Second compound 0.00949 µM, first compound 0.1 µM
  viability, T/C: 107%
Second compound 0.00949 µM, first compound 0.316 µM
  viability, T/C: 106%
Second compound 0.00949 µM, first compound 1 µM
  viability, T/C: 105%
Second compound 0.03 µM, first compound 0.00316 µM
  viability, T/C: 102%
Second compound 0.03 µM, first compound 0.01 µM
  viability, T/C: 99.7%
Second compound 0.03 µM, first compound 0.0316 µM
  viability, T/C: 106%
Second compound 0.03 µM, first compound 0.1 µM
  viability, T/C: 105%
Second compound 0.03 µM, first compound 0.316 µM
  viability, T/C: 106%
Second compound 0.03 µM, first compound 1 µM
  viability, T/C: 107%
Second compound 0.0949 µM, first compound 0.00316 µM
  viability, T/C: 102%
Second compound 0.0949 µM, first compound 0.01 µM
  viability, T/C: 103%
Second compound 0.0949 µM, first compound 0.0316 µM
  viability, T/C: 106%
Second compound 0.0949 µM, first compound 0.1 µM
  viability, T/C: 104%
Second compound 0.0949 µM, first compound 0.316 µM
  viability, T/C: 107%
Second compound 0.0949 µM, first compound 1 µM
  viability, T/C: 104%
Second compound 0.3 µM, first compound 0.00316 µM
  viability, T/C: 102%
Second compound 0.3 µM, first compound 0.01 µM
  viability, T/C: 104%
Second compound 0.3 µM, first compound 0.0316 µM
  viability, T/C: 106%
Second compound 0.3 µM, first compound 0.1 µM
  viability, T/C: 107%
Second compound 0.3 µM, first compound 0.316 µM
  viability, T/C: 107%
Second compound 0.3 µM, first compound 1 µM
  viability, T/C: 103%

## NC1c2ccccc2OC12CCN(c1cnc3c(N4CCCc5ncccc54)n[nH]c3n1)CC2 (centres undefined)
Compound 0.0316 µM
  viability, T/C: 104% [middle of 4 runs]
Compound 0.1 µM
  viability, T/C: 99.1% [middle of 4 runs]
Compound 0.316 µM
  viability, T/C: 104% [middle of 4 runs]
Compound 1 µM
  viability, T/C: 102% [middle of 4 runs]
Compound 3.16 µM
  viability, T/C: 101% [middle of 4 runs]
Compound 10 µM
  viability, T/C: 69.9% [middle of 4 runs]
Curve of compound
  IC50: > 10000 nM
